Test results: patent US20140348819A1, “Methods of Treating Cancer” (Dana-Farber Cancer Institute, Inc., priority 2011, published 2014)

Key:
[1] = test system: pERK/pAKT; experiment: High-throughput western analysis of pERK/pAKT re-activation by RTK ligands under BRAFi/MEKi; type: cell-based, human; settings: under BRAFi (PLX4720); after 1 hour of cytokine treatment; six V600E BRAF melanoma cell lines
Method: FIG. 23B is a western blot showing the activation of AKT (phosphorylated AKT, S473) after 1 hour and 24 hours after treatment with HGF, IGF-1 (IGF), and Insulin (INS) in the presence of BRAFi (PLX4720, 2 μM). FIG. 23C is a western blot showing the effect of HGF (25 ng/mL) on MAPK and PI3K/AKT pathway activation (pRAF1, pMEK, pERK, pAKT and pMET) in melanoma cell lines after 24 hours of treatment with 2 μM BRAFi (PLX4720) or 2 μM MEKi (PD184352).
To understand why, of all the RTKs tested, only HGF could induce such a unique primary resistance phenotype, a high-throughput western analysis was used to test the ability of all 22 RTK ligands to re-activate pERK/pAKT under BRAFi (PLX4720) treatment in six V600E BRAF melanoma cell lines. […] However, whereas the activation of both ERK and AKT by HGF under PLX4720 treatment was long lasting, the activation of either ERK or AKT by the above cytokines was only transient and thus could not confer resistance to the melanoma cell lines.

[2] = test system: six V600E BRAF melanoma cell lines; experiment: Screening of recombinant RTK ligands for ability to confer resistance to BRAFi (PLX4720) or MEKi (PD184352) (Table 4); type: cell-based, human; set-up: ability of recombinant RTK ligand to confer resistance / ability of recombinant RTK ligand to confer resistance (screening value): scale not given here
Method in brief: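 Six V600E BRAF melanoma lines treated with PLX4720 or PD184352 after addition of 22 recombinant RTK ligands, scored for drug resistance. Activation of selected RTKs confirmed by western blotting and high-throughput tyrosine kinase phosphorylation profiling.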

## PDGF-BB: RTK ligand of PDGFRB
[1]
  re-activation of pERK/pAKT: reactivate only ERK
[2]; A2058, PD184352 - 1 uM, ligand 0.4 ng/ml
  ability of recombinant RTK ligand to confer resistance: 1.07
[2]; A2058, PD184352 - 1 uM, ligand 1.6 ng/ml
  ability of recombinant RTK ligand to confer resistance: 0.98
[2]; A2058, PD184352 - 1 uM, ligand 6.25 ng/ml
  ability of recombinant RTK ligand to confer resistance: 1.10
[2]; A2058, PD184352 - 1 uM, ligand 25 ng/ml
  ability of recombinant RTK ligand to confer resistance: 1.09
[2]; A2058, PD184352 - 1 uM, ligand 100 ng/ml
  ability of recombinant RTK ligand to confer resistance: 1.02
[2]; A2058, PLX4720 - 2 uM, ligand 0.4 ng/ml
  ability of recombinant RTK ligand to confer resistance: 1.07
[2]; A2058, PLX4720 - 2 uM, ligand 1.6 ng/ml
  ability of recombinant RTK ligand to confer resistance: 0.98
[2]; A2058, PLX4720 - 2 uM, ligand 6.25 ng/ml
  ability of recombinant RTK ligand to confer resistance: 1.07
[2]; A2058, PLX4720 - 2 uM, ligand 25 ng/ml
  ability of recombinant RTK ligand to confer resistance: 1.12
[2]; A2058, PLX4720 - 2 uM, ligand 100 ng/ml
  ability of recombinant RTK ligand to confer resistance: 1.07
[2]; C32, PD184352 - 1 uM, ligand 0.4 ng/ml
  ability of recombinant RTK ligand to confer resistance: 1.06
[2]; C32, PD184352 - 1 uM, ligand 1.6 ng/ml
  ability of recombinant RTK ligand to confer resistance: 0.97
[2]; C32, PD184352 - 1 uM, ligand 6.25 ng/ml
  ability of recombinant RTK ligand to confer resistance: 1.08
[2]; C32, PD184352 - 1 uM, ligand 25 ng/ml
  ability of recombinant RTK ligand to confer resistance: 1.10
[2]; C32, PD184352 - 1 uM, ligand 100 ng/ml
  ability of recombinant RTK ligand to confer resistance: 0.96
[2]; C32, PLX4720 - 2 uM, ligand 0.4 ng/ml
  ability of recombinant RTK ligand to confer resistance: 0.96
[2]; C32, PLX4720 - 2 uM, ligand 1.6 ng/ml
  ability of recombinant RTK ligand to confer resistance: 0.97
[2]; C32, PLX4720 - 2 uM, ligand 6.25 ng/ml
  ability of recombinant RTK ligand to confer resistance: 1.04
[2]; C32, PLX4720 - 2 uM, ligand 25 ng/ml
  ability of recombinant RTK ligand to confer resistance: 0.97
[2]; C32, PLX4720 - 2 uM, ligand 100 ng/ml
  ability of recombinant RTK ligand to confer resistance: 0.89
[2]; Colo 829, PD184352 - 1 uM, ligand 0.4 ng/ml
  ability of recombinant RTK ligand to confer resistance: 1.04
[2]; Colo 829, PD184352 - 1 uM, ligand 1.6 ng/ml
  ability of recombinant RTK ligand to confer resistance: 1.06
[2]; Colo 829, PD184352 - 1 uM, ligand 6.25 ng/ml
  ability of recombinant RTK ligand to confer resistance: 1.10
[2]; Colo 829, PD184352 - 1 uM, ligand 25 ng/ml
  ability of recombinant RTK ligand to confer resistance: 1.09
[2]; Colo 829, PD184352 - 1 uM, ligand 100 ng/ml
  ability of recombinant RTK ligand to confer resistance: 0.98
[2]; Colo 829, PLX4720 - 2 uM, ligand 0.4 ng/ml
  ability of recombinant RTK ligand to confer resistance: 1.01
[2]; Colo 829, PLX4720 - 2 uM, ligand 1.6 ng/ml
  ability of recombinant RTK ligand to confer resistance: 1.03
[2]; Colo 829, PLX4720 - 2 uM, ligand 6.25 ng/ml
  ability of recombinant RTK ligand to confer resistance: 1.06
[2]; Colo 829, PLX4720 - 2 uM, ligand 25 ng/ml
  ability of recombinant RTK ligand to confer resistance: 1.06
[2]; Colo 829, PLX4720 - 2 uM, ligand 100 ng/ml
  ability of recombinant RTK ligand to confer resistance: 1.01
[2]; G-361, PD184352 - 1 uM, ligand 0.4 ng/ml
  ability of recombinant RTK ligand to confer resistance: 1.00
[2]; G-361, PD184352 - 1 uM, ligand 1.6 ng/ml
  ability of recombinant RTK ligand to confer resistance: 0.89
[2]; G-361, PD184352 - 1 uM, ligand 6.25 ng/ml
  ability of recombinant RTK ligand to confer resistance: 0.99
[2]; G-361, PD184352 - 1 uM, ligand 25 ng/ml
  ability of recombinant RTK ligand to confer resistance: 0.98
[2]; G-361, PD184352 - 1 uM, ligand 100 ng/ml
  ability of recombinant RTK ligand to confer resistance: 0.96
[2]; G-361, PLX4720 - 2 uM, ligand 0.4 ng/ml
  ability of recombinant RTK ligand to confer resistance: 0.93
[2]; G-361, PLX4720 - 2 uM, ligand 1.6 ng/ml
  ability of recombinant RTK ligand to confer resistance: 0.90
[2]; G-361, PLX4720 - 2 uM, ligand 6.25 ng/ml
  ability of recombinant RTK ligand to confer resistance: 0.98
[2]; G-361, PLX4720 - 2 uM, ligand 25 ng/ml
  ability of recombinant RTK ligand to confer resistance: 1.00
[2]; G-361, PLX4720 - 2 uM, ligand 100 ng/ml
  ability of recombinant RTK ligand to confer resistance: 1.00
[2]; SK-MEL-5, PD184352 - 1 uM, ligand 0.4 ng/ml
  ability of recombinant RTK ligand to confer resistance: 1.03
[2]; SK-MEL-5, PD184352 - 1 uM, ligand 1.6 ng/ml
  ability of recombinant RTK ligand to confer resistance: 1.08
[2]; SK-MEL-5, PD184352 - 1 uM, ligand 6.25 ng/ml
  ability of recombinant RTK ligand to confer resistance: 1.04
[2]; SK-MEL-5, PD184352 - 1 uM, ligand 25 ng/ml
  ability of recombinant RTK ligand to confer resistance: 1.15
[2]; SK-MEL-5, PD184352 - 1 uM, ligand 100 ng/ml
  ability of recombinant RTK ligand to confer resistance: 1.16
[2]; SK-MEL-5, PLX4720 - 2 uM, ligand 0.4 ng/ml
  ability of recombinant RTK ligand to confer resistance: 0.87
[2]; SK-MEL-5, PLX4720 - 2 uM, ligand 1.6 ng/ml
  ability of recombinant RTK ligand to confer resistance: 0.98
[2]; SK-MEL-5, PLX4720 - 2 uM, ligand 6.25 ng/ml
  ability of recombinant RTK ligand to confer resistance: 1.02
[2]; SK-MEL-5, PLX4720 - 2 uM, ligand 25 ng/ml
  ability of recombinant RTK ligand to confer resistance: 1.16
[2]; SK-MEL-5, PLX4720 - 2 uM, ligand 100 ng/ml
  ability of recombinant RTK ligand to confer resistance: 1.31
[2]; SK-MEL-28, PD184352 - 1 uM, ligand 0.4 ng/ml
  ability of recombinant RTK ligand to confer resistance: 1.10
[2]; SK-MEL-28, PD184352 - 1 uM, ligand 1.6 ng/ml
  ability of recombinant RTK ligand to confer resistance: 1.02
[2]; SK-MEL-28, PD184352 - 1 uM, ligand 6.25 ng/ml
  ability of recombinant RTK ligand to confer resistance: 1.05
[2]; SK-MEL-28, PD184352 - 1 uM, ligand 25 ng/ml
  ability of recombinant RTK ligand to confer resistance: 0.99
[2]; SK-MEL-28, PD184352 - 1 uM, ligand 100 ng/ml
  ability of recombinant RTK ligand to confer resistance: 1.03
[2]; SK-MEL-28, PLX4720 - 2 uM, ligand 0.4 ng/ml
  ability of recombinant RTK ligand to confer resistance: 1.03
[2]; SK-MEL-28, PLX4720 - 2 uM, ligand 1.6 ng/ml
  ability of recombinant RTK ligand to confer resistance: 1.10
[2]; SK-MEL-28, PLX4720 - 2 uM, ligand 6.25 ng/ml
  ability of recombinant RTK ligand to confer resistance: 1.16
[2]; SK-MEL-28, PLX4720 - 2 uM, ligand 25 ng/ml
  ability of recombinant RTK ligand to confer resistance: 10.5
[2]; SK-MEL-28, PLX4720 - 2 uM, ligand 100 ng/ml
  ability of recombinant RTK ligand to confer resistance: 1.13
[2]; six V600E BRAF melanoma cell lines, BRAFi (PLX4720) or MEKi (PD184352)
  ability of RTK ligand to confer primary resistance: not shown to induce primary resistance
